Assay results taken from patent US11351168B1 (Celgene CAR LLC, priority 2008, dated 2022).

Assays:
BTK = BTK (Homo sapiens (Human), UniProt Q06187); experiment: Mass spectrometry for BTK (intact protein); assay type: binding; conditions: 1 hr, 10× fold excess of compound
Procedure: Mass Spectrometry for BTK
Intact BTK was incubated for 1 hr at a 10× fold excess of I-7 to protein. Aliquots (2 μl) of the samples were diluted with 10 μl of 0.1% TFA prior to micro C4 ZipTipping directly onto the MALDI target using Sinapinic acid as the desorption matrix (10 mg/ml in 0.1% TFA:Acetonitrile 20:80).

[1] = tested on: BTK signaling in Ramos cells; experiment: BTK Ramos cellular assay (phosphorylation of BTK substrate PLCγ2); assay type: cell-based, human; conditions: Homo sapiens, 1 hour compound, anti-IgM stimulation, read-out: BTK Inhibition (Ramos cellular)
Procedure: Compounds I-2, I-4, and I-7 were assayed in Ramos human Burkitt lymphoma cells. Ramos cells were grown in suspension in T225 flasks, spun down, resuspended in 50 ml serum-free media and incubated for 1 hour. Compound was added to Ramos cells in serum free media to a final concentration of 1, 0.1, 0.01, or 0.001 μM. Ramos cells were incubated with compound for 1 hour, washed again and resuspended in 100 ul serum-free media. Cells were then stimulated with 1 μg of goat F(ab′)2 Anti-Human IgM and incubated on ice for 10 minutes to activate B cell receptor signaling pathways. After 10 minutes, the cells were washed once with PBS and then lysed on ice with Invitrogen Cell Extraction buffer. 16 μg total protein from lysates were loaded on gel and blots were probed for phosphorylation of the BTK substrate PLCγ2.

[2] = tested on: BTK kinase activity (PLCγ2 phosphorylation) in Ramos cells; experiment: Washout experiment with Ramos cells; assay type: cell-based, human; conditions: 100 nM compound for 1 hour, then washout
Procedure: Washout Experiment with Ramos Cells
Ramos cells were serum starved for one hour in RPMI media+1% glutamine at 37° C. After starvation, Ramos cells were treated with 100 nM compound diluted in serum free RPMI media for 1 hour. After compound treatment, the media was removed and cells were washed with compound-free media. Subsequently, Ramos cells were washed every 2 hours and resuspended in fresh compound-free media. Cells were collected at specified timepoints, treated with 1 ug anti-human IgM (Southern Biotech cat #2022-01) for 10 minutes on ice to induce BCR signaling and then washed in PBS. Ramos cells were then lysed in Cell Extraction Buffer (Invitrogen FNN0011) supplemented with Roche complete protease inhibitor tablets (Roche 11697498001) and phosphatase inhibitors (Roche 04 906 837 001) and 18 ug total protein lysate was loaded in each lane. Inhibition of BTK kinase activity was assayed by measuring its substrate (PLCγ2) phosphorylation by western blot with phospho-specific antibodies from Cell Signaling Technologies cat #3871. The results of this experiment with compounds I-2, I-4 and I-7 are depicted in FIGS. 1, 2 and 3.

Chain of BTK (Q06187 whole entry): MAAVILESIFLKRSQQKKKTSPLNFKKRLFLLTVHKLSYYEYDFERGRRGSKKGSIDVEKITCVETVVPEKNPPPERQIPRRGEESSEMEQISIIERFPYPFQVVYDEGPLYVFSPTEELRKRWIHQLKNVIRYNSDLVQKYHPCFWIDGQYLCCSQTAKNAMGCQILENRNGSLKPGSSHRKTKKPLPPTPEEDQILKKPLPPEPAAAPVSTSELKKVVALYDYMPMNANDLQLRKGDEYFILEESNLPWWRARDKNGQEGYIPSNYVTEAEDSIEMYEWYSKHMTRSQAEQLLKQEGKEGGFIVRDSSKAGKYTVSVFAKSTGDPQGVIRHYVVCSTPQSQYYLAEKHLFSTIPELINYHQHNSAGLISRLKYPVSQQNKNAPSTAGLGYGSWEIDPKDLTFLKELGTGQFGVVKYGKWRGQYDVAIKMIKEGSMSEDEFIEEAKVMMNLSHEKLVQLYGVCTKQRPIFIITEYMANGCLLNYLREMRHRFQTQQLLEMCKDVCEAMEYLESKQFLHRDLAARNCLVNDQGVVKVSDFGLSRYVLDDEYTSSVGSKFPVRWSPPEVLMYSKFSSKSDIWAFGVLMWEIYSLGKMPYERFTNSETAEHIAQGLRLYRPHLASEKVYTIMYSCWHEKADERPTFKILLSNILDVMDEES

Molecule	modification of BTK by mass spectrometry (BTK)	IC50 [1]	BTK Inhibition Type [2]
C=CC(=O)Nc1cccc(Nc2nc(Nc3cccc(OC(F)(F)F)c3)ncc2F)c1 [Compound I-244, N-(3-(5-fluoro-2-(3-(trifluoromethoxy)phenylamino)pyrimidin-4-ylamino)phenyl)acrylamide]	completely modify	10 to 100 nM	–
C=CC(=O)Nc1cccc(Nc2nc(Nc3ccc(OCCOC)cc3)ncc2F)c1 [Compound I-182, N-(3-(5-fluoro-2-(4-(2-methoxyethoxy)phenylamino)pyrimidin-4-ylamino)phenyl)acrylamide]	completely modify	–	–
C=CC(=O)Nc1cccc(Nc2nc(Nc3ccc(OC)nc3)ncc2F)c1 [Compound I-243, N-(3-(5-fluoro-2-(6-methoxypyridin-3-ylamino)pyrimidin-4-ylamino)phenyl)acrylamide]	–	< 10 nM	irreversible
C=C(C#N)C(O)c1cccc(Nc2nc(Nc3ccc(OCCOC)cc3)ncc2F)c1 (centres unmarked) [Compound I-71, 2-((3-(5-fluoro-2-(4-(2-methoxyethoxy)phenylamino)pyrimidin-4-ylamino)phenyl)(hydroxy)methyl)acrylonitrile]	completely modify	–	–
2-((4-(5-fluoro-2-(3-trifluoromethoxyphenylamino)pyrimidin-4-ylamino)phenyl)(hydroxy)methyl)acrylonitrile [Compound I-163]	completely modify	–	–
C=CC(=O)Nc1cccc(Nc2nc(Nc3ccccc3)ncc2C(N)=O)c1 [Compound I-230, 4-(3-acrylamidophenylamino)-2-(phenylamino)pyrimidine-5-carboxamide]	–	< 10 nM	irreversible
C=CC(=O)N1CCOc2ccc(Nc3ncc(F)c(Nc4cccc(Cl)c4)n3)cc21 [Compound I-149, 1-(6-(4-(3-chlorophenylamino)-5-fluoropyrimidin-2-ylamino)-2H-benzo[b][1,4]oxazin-4(3H)-yl)prop-2-en-1-one]	completely modify	10 to 100 nM	–
C=CC(=O)N(C)Cc1ccc(Nc2nc(Nc3ccccc3)ncc2C)cc1 [Compound I-219, N-methyl-N-(4-(5-methyl-2-(phenylamino)pyrimidin-4-ylamino)benzyl)acrylamide]	completely modify	10 to 100 nM	–
C=CC(=O)Nc1cccc(Nc2nc(Nc3ccccc3)ncc2F)c1 [Compound I-28, N-(3-(5-fluoro-2-(phenylamino)pyrimidin-4-ylamino)phenyl)acrylamide]	–	–	irreversible
C=CC(=O)Nc1cccc(Oc2nc(Nc3ccccc3)ncc2C)c1 [Compound I-248, N-(3-(5-methyl-2-(phenylamino)pyrimidin-4-yloxy)phenyl)acrylamide]	–	< 10 nM	irreversible
C=CC(=O)Nc1cccc(Nc2nc(Nc3ccc(F)cc3)ncc2F)c1 [Compound I-247, N-(3-(5-fluoro-2-(4-fluorophenylamino)pyrimidin-4-ylamino)phenyl)acrylamide]	–	< 10 nM	irreversible
C=C(C#N)C(O)c1ccc(Nc2nc(Nc3ccccc3)ncc2F)cc1 (centres unmarked) [Compound I-161, 2-((4-(5-fluoro-2-(phenylamino)pyrimidin-4-ylamino)phenyl)(hydroxy)methyl)acrylonitrile]	completely modify	–	–
C=CC(=O)Nc1cccc(Nc2nc(Nc3cccc(OC)c3)ncc2C(F)(F)F)c1 [Compound I-242, N-(3-(5-trifluoromethyl-2-(3-methoxyphenylamino)pyrimidin-4-ylamino)phenyl)acrylamide]	–	< 10 nM	irreversible
Cc1cnc(Nc2ccccc2)nc1Nc1cccc(NC(=O)/C=C/CN(C)C)c1 [Compound I-38, (E)-4-(dimethylamino)-N-(3-(5-methyl-2-(phenylamino)pyrimidin-4-ylamino)phenyl)but-2-enamide]	–	10 to 100 nM	reversible
C#CCOc1cccc(Nc2ncc(C)c(Nc3cccc(NC(=O)C=C)c3)n2)c1 [Compound I-35, N-(3-(5-methyl-2-(3-(prop-2-ynyloxy)phenylamino)pyrimidin-4-ylamino)phenyl) acrylamide]	–	< 10 nM	irreversible
C=CC(=O)Nc1cccc(Oc2nc(Nc3ccccc3)ncc2F)c1 [Compound I-228, N-(3-(5-fluoro-2-(phenylamino)pyrimidin-4-yloxy)phenyl)acrylamide]	–	< 10 nM	irreversible
C=CC(=O)Nc1cc(Nc2nc(Nc3ccc(OCCOC)cc3)ncc2F)ccc1Cl [Compound I-108, N-(2-chloro-5-(5-fluoro-2-(4-(2-methoxyethoxy)phenylamino)pyrimidin-4-ylamino)phenyl)acrylamide]	–	10 to 100 nM	–
C=CC(=O)Nc1cccc(Nc2nc(Nc3ccc(OCCCS(C)(=O)=O)nc3)ncc2F)c1 [Compound I-80, N-(3-(5-fluoro-2-(6-(3-(methylsulfonyl)propoxy)pyridin-3-ylamino)pyrimidin-4-ylamino)phenyl)acrylamide]	–	< 10 nM	–
C=CC(=O)Nc1cccc(Nc2nc(Nc3ccc(OC)nc3)ncc2C(N)=O)c1 [Compound I-209, 4-(3-acrylamidophenylamino)-2-(6-methoxypyridin-3-ylamino)pyrimidine-5-carboxamide]	–	10 to 100 nM	–
C=CC(=O)Nc1cccc(Nc2nc(Nc3cccc(OC)c3)ncc2OC)c1 [Compound I-158, N-(3-(5-methoxy-2-(3-methoxyphenylamino)pyrimidin-4-ylamino)phenyl)acrylamide]	–	10 to 100 nM	–
C=CC(=O)Nc1cccc(Nc2nc(Nc3ccc(OC)nc3)ncc2C#N)c1 [Compound I-173, N-(3-(5-cyano-2-(6-methoxypyridin-3-ylamino)pyrimidin-4-ylamino)phenyl)acrylamide]	–	< 10 nM	–
C=CC(=O)Nc1cccc(Nc2nc(Nc3ccc(OC)nc3)ncc2OC)c1 [Compound I-192, N-(3-(5-methoxy-2-(6-methoxypyridin-3-ylamino)pyrimidin-4-ylamino)phenyl)acrylamide]	–	10 to 100 nM	–
C=CC(=O)N(C)Cc1cccc(Nc2nc(Nc3ccccc3)ncc2C)c1 [Compound I-220, N-methyl-N-(3-(5-methyl-2-(phenylamino)pyrimidin-4-ylamino)benzyl)acrylamide]	–	10 to 100 nM	–
C=CC(=O)Nc1cccc(Nc2nc(Nc3ccc(OCCOC)nc3)ncc2C(C)=O)c1 [Compound I-122, N-(3-{5-Acetyl-2-[6-(2-methoxy-ethoxy)-pyridin-3-ylamino]-pyrimidin-4-ylamino}-phenyl)-acrylamide]	–	< 10 nM	–
C=CC(=O)Nc1cccc(Nc2nc(Nc3ccc(OCCOC)cc3)ncc2C(C)=O)c1 [Compound I-124, N-(3-{5-Acetyl-2-[4-(2-methoxy-ethoxy)-phenylamino]-pyrimidin-4-ylamino}-phenyl)-acrylamide]	–	< 10 nM	–
C=CC(=O)Nc1cccc(Nc2nc(Nc3ccc4c(c3)N(S(C)(=O)=O)CCO4)ncc2F)c1 [Compound I-140, N-(3-(2-(4-methylsulfonyl-2,3-dihydrobenzo[1,4]oxazin-6-yl)amino-5-fluoropyrimidin-4-ylamino)phenyl)acrylamide]	–	10 to 100 nM	–
C=CC(=O)Nc1cccc(Nc2nc(Nc3cccc(OCCO)c3)ncc2F)c1 [Compound I-105, N-(3-(5-fluoro-2-(3-(2-hydroxyethoxy)phenylamino)pyrimidin-4-ylamino)phenyl)acrylamide]	–	< 10 nM	–
